Test results as given in US20210337789A1, “Derivatives of m-Guaiacol, Their Preparation and Their Uses” (Universite de Caen Normandie, priority 2018, published 2021).

Experiments:
[1] = tested on: Micrococcus luteus reference strain; experiment: Bacterial growth (optical density at 600 nm) on Micrococcus luteus reference strain; type: cell-based; parameters: key: 0 = no effect, 1 = pure only, 2 = several concentrations, 3 = strong at all; details: in DMSO diluted in PBS, compared with triclosan
Description: (§1) The bacterial growth is evaluated by measuring the optical density (DO) at 600 nm using NanoDrop.
(§2) This ratio permits a classification of the molecules in 4 effect levels: • 0=no effect observed; • 1=effect observed only when the molecule is tested pure; • 2=effect observed at several concentrations, but which gradually decreases the dilutions; • 3=strong effect observed at each concentration of molecule tested.
The molecules are put in a solution in DMSO and diluted in PBS.

[2] = tested on: Streptococcus equi subsp zooepidemicus; experiment: Bacterial growth screening on wild-type phenotype strain, S. zooepidemicus; type: cell-based
Description: as §1, §2
(§3) A screening of molecules of the invention on several wild-type phenotype strains has been carried out.
(§4) The strains initially selected are: • Gram+: Streptococcus equi subsp zooepidemicus and Staphylococcus aureus • Gram−: Escherichia coli, Klebsiella pneumoniae and Stenotrophomonas maltophila.

Staphylococcus aureus = experiment: Bacterial growth screening on wild-type phenotype strain, S. aureus; type: cell-based
Description: as §1, §2, §3, §4

Escherichia coli = experiment: Bacterial growth screening on wild-type phenotype strain, E. coli; type: cell-based
Description: as §1, §2, §3, §4

Klebsiella pneumoniae = experiment: Bacterial growth screening on wild-type phenotype strain, K. pneumoniae; type: cell-based
Description: as §1, §2, §3, §4

[3] = tested on: Stenotrophomonas maltophila; experiment: Bacterial growth screening on wild-type phenotype strain, S. maltophila; type: cell-based
Description: as §1, §2, §3, §4

[4] = tested on: E. coli strains presenting high levels of resistance; experiment: Bacterial growth on E. coli strains presenting high levels of resistance; type: cell-based, Escherichia coli; parameters: key to Effects (0 < 1 < 2 < 3): 0 = no effect; 1 = pure only; 2 = several concs; 3 = strong at each; key to Δ DO: change in optical density measured at 600 nm; details: for Effects (0 < 1 < 2 < 3): molecules at 1, 0.5 and 0.1 mg/ml, triclosan at 0.1 mg/ml
Description: as §1, §2
(§5) Compounds of the invention were tested on 4 strains of E. coli, 3 strains of K. pneumoniae and 4 strains of S. aureus with the resistance profiles below.

[5] = tested on: K. pneumoniae strains presenting high levels of resistance; experiment: Bacterial growth on K. pneumoniae strains presenting high levels of resistance; type: cell-based, Klebsiella pneumoniae; parameters: key to Effects (0 < 1 < 2 < 3): 0 = no effect; 1 = pure only; 2 = several concs; 3 = strong at each; key to Δ DO: change in optical density measured at 600 nm; details: for Effects (0 < 1 < 2 < 3): molecules at 1, 0.5 and 0.1 mg/ml, triclosan at 0.1 mg/ml
Description: as §1, §2, §5

[6] = tested on: S. aureus strains presenting high levels of resistance; experiment: Bacterial growth on S. aureus strains presenting high levels of resistance; type: cell-based, Staphylococcus aureus; parameters: key to Effects (0 < 1 < 2 < 3): 0 = no effect; 1 = pure only; 2 = several concs; 3 = strong at each; key to Δ DO: change in optical density measured at 600 nm; details: for Effects (0 < 1 < 2 < 3): molecules at 1, 0.5 and 0.1 mg/ml, triclosan at 0.1 mg/ml
Description: as §1, §2, §5

[7] = tested on: KB cells (epidermoid carcinoma); experiment: In vitro cytotoxicity, cell proliferation test (MTS) on KB cells; type: cell-based; details: Homo sapiens, KB cells, triplicate, 72 hours of exposure, with respect to DMSO control, read-out: percentage of inhibition of cell growth; for inhibition at 10 µM: 10^−5 M; for inhibition at 1 µM: 10^−6 M
Description: The human cell strain KB (epidermoid carcinoma) was obtained from the NCI (National Cancer Institute) and cultivated in the D-MEM medium added with 10% of foetal bovine serum (Invitrogen) in the presence of penicillin, streptomycin and fungizone in flasks of […] under CO2 at 5%. The cells were deposited on tissue culture microplates with 96 wells and a density of 650 cells/well in 200 μl of medium and treated 24 hours later with compounds of the invention dissolved in DMSO at concentrations going from 0.5 nM to 10 μM using a Biomek 3000 (Beckman-Coulter) automaton. The controls received the same volume of DMSO (1% of final volume). After 72 hours of exposure, the MTS reagent (Celltiter 96Aqueous One solution, Promega) was added and incubated for 3 hours at 37° C.: the absorbance was measured at 490 nm and the results of inhibition of the cell proliferation were calculated according to the ratio [(1−(OD490treated/OD490control))×100].
Results: Cytotoxicity at 10^−5 and 10^−6M on Triplicate KB Cells, Measured after 72 Hours of Exposure.
The percentage of inhibition of cell growth with respect to the cells receiving the same quantity of DMSO is outlined in the table below.

[8] = K. pneumoniae Strain 1, 0.1 mg/ml
[9] = K. pneumoniae Strain 1, 0.5 mg/ml
[10] = K. pneumoniae Strain 1, 1 mg/ml
[11] = K. pneumoniae Strain 2, 0.1 mg/ml
[12] = K. pneumoniae Strain 2, 0.5 mg/ml
[13] = K. pneumoniae Strain 2, 1 mg/ml
[14] = K. pneumoniae Strain 3, 0.1 mg/ml
[15] = K. pneumoniae Strain 3, 0.5 mg/ml
[16] = K. pneumoniae Strain 3, 1 mg/ml

## COc1cc(O)c(Cl)c(Cl)c1Cl [sr7585]
[1]
  Effect level: 3
[2]
  Effect level, S. zooepidemicus: 3
Staphylococcus aureus
  Effect level, S. aureus: 3
Escherichia coli
  Effect level, E. coli: 3
Klebsiella pneumoniae
  Effect level, K. pneumoniae: 2
[3]
  Effect level, S. maltophila: 2
[4]; E. coli Strain 1, 0.1 mg/ml
  Δ DO: 0.196
[4]; E. coli Strain 1, 0.5 mg/ml
  Δ DO: 0.746
[4]; E. coli Strain 1, 1 mg/ml
  Δ DO: 0.920
[4]; E. coli Strain 1
  Effects (0 < 1 < 2 < 3): 3
[4]; E. coli Strain 2, 0.1 mg/ml
  Δ DO: 0.313
[4]; E. coli Strain 2, 0.5 mg/ml
  Δ DO: 0.964
[4]; E. coli Strain 2, 1 mg/ml
  Δ DO: 1.097
[4]; E. coli Strain 2
  Effects (0 < 1 < 2 < 3): 3
[4]; E. coli Strain 3, 0.1 mg/ml
  Δ DO: 0.186
[4]; E. coli Strain 3, 0.5 mg/ml
  Δ DO: 0.736
[4]; E. coli Strain 3, 1 mg/ml
  Δ DO: 0.893
[4]; E. coli Strain 3
  Effects (0 < 1 < 2 < 3): 3
[4]; E. coli Strain 4, 0.1 mg/ml
  Δ DO: 0.322
[4]; E. coli Strain 4, 0.5 mg/ml
  Δ DO: 0.848
[4]; E. coli Strain 4, 1 mg/ml
  Δ DO: 0.979
[4]; E. coli Strain 4
  Effects (0 < 1 < 2 < 3): 3
[5]; [8]
  Δ DO: 0.251
[5]; [9]
  Δ DO: 0.595
[5]; [10]
  Δ DO: 0.644
[5]; K. pneumoniae Strain 1
  Effects (0 < 1 < 2 < 3): 3
[5]; [11]
  Δ DO: 0.035
[5]; [12]
  Δ DO: 0.620
[5]; [13]
  Δ DO: 0.701
[5]; K. pneumoniae Strain 2
  Effects (0 < 1 < 2 < 3): 2
[5]; [14]
  Δ DO: 0.265
[5]; [15]
  Δ DO: 0.683
[5]; [16]
  Δ DO: 0.872
[5]; K. pneumoniae Strain 3
  Effects (0 < 1 < 2 < 3): 2
[6]; S. aureus Strain 1, 0.1 mg/ml
  Δ DO: 0.352
[6]; S. aureus Strain 1, 0.5 mg/ml
  Δ DO: 0.445
[6]; S. aureus Strain 1, 1 mg/ml
  Δ DO: 0.445
[6]; S. aureus Strain 1
  Effects (0 < 1 < 2 < 3): 3
[6]; S. aureus Strain 2, 0.1 mg/ml
  Δ DO: 0.385
[6]; S. aureus Strain 2, 0.5 mg/ml
  Δ DO: 0.458
[6]; S. aureus Strain 2, 1 mg/ml
  Δ DO: 0.457
[6]; S. aureus Strain 2
  Effects (0 < 1 < 2 < 3): 3
[6]; S. aureus Strain 3, 0.1 mg/ml
  Δ DO: 0.459
[6]; S. aureus Strain 3, 0.5 mg/ml
  Δ DO: 0.529
[6]; S. aureus Strain 3, 1 mg/ml
  Δ DO: 0.530
[6]; S. aureus Strain 3
  Effects (0 < 1 < 2 < 3): 3
[6]; S. aureus Strain 4, 0.1 mg/ml
  Δ DO: 0.405
[6]; S. aureus Strain 4, 0.5 mg/ml
  Δ DO: 0.491
[6]; S. aureus Strain 4, 1 mg/ml
  Δ DO: 0.486
[6]; S. aureus Strain 4
  Effects (0 < 1 < 2 < 3): 3
[7]
  inhibition at 10 µM: 0%
  inhibition at 1 µM: 0%

## COc1cc(O)c(Cl)c(Br)c1Cl [sr7616]
[1]
  Effect level: 3
[2]
  Effect level, S. zooepidemicus: 3
Staphylococcus aureus
  Effect level, S. aureus: 2
Escherichia coli
  Effect level, E. coli: 3
Klebsiella pneumoniae
  Effect level, K. pneumoniae: 3
[3]
  Effect level, S. maltophila: 2
[4]; E. coli Strain 1, 0.1 mg/ml
  Δ DO: 0.089
[4]; E. coli Strain 1, 0.5 mg/ml
  Δ DO: 0.640
[4]; E. coli Strain 1, 1 mg/ml
  Δ DO: 0.857
[4]; E. coli Strain 1
  Effects (0 < 1 < 2 < 3): 2
[4]; E. coli Strain 2, 0.1 mg/ml
  Δ DO: 0.331
[4]; E. coli Strain 2, 0.5 mg/ml
  Δ DO: 0.854
[4]; E. coli Strain 2, 1 mg/ml
  Δ DO: 1.069
[4]; E. coli Strain 2
  Effects (0 < 1 < 2 < 3): 3
[4]; E. coli Strain 3, 0.1 mg/ml
  Δ DO: 0.141
[4]; E. coli Strain 3, 0.5 mg/ml
  Δ DO: 0.679
[4]; E. coli Strain 3, 1 mg/ml
  Δ DO: 0.825
[4]; E. coli Strain 3
  Effects (0 < 1 < 2 < 3): 3
[4]; E. coli Strain 4, 0.1 mg/ml
  Δ DO: 0.308
[4]; E. coli Strain 4, 0.5 mg/ml
  Δ DO: 0.868
[4]; E. coli Strain 4, 1 mg/ml
  Δ DO: 0.853
[4]; E. coli Strain 4
  Effects (0 < 1 < 2 < 3): 3
[5]; [8]
  Δ DO: 0.236
[5]; [9]
  Δ DO: 0.594
[5]; [10]
  Δ DO: 0.646
[5]; K. pneumoniae Strain 1
  Effects (0 < 1 < 2 < 3): 3
[5]; [11]
  Δ DO: 0.151
[5]; [12]
  Δ DO: 0.641
[5]; [13]
  Δ DO: 0.686
[5]; K. pneumoniae Strain 2
  Effects (0 < 1 < 2 < 3): 2
[5]; [14]
  Δ DO: 0.213
[5]; [15]
  Δ DO: 0.652
[5]; [16]
  Δ DO: 0.847
[5]; K. pneumoniae Strain 3
  Effects (0 < 1 < 2 < 3): 2
[6]; S. aureus Strain 1, 0.1 mg/ml
  Δ DO: 0.276
[6]; S. aureus Strain 1, 0.5 mg/ml
  Δ DO: 0.443
[6]; S. aureus Strain 1, 1 mg/ml
  Δ DO: 0.445
[6]; S. aureus Strain 1
  Effects (0 < 1 < 2 < 3): 3
[6]; S. aureus Strain 2, 0.1 mg/ml
  Δ DO: 0.303
[6]; S. aureus Strain 2, 0.5 mg/ml
  Δ DO: 0.458
[6]; S. aureus Strain 2, 1 mg/ml
  Δ DO: 0.459
[6]; S. aureus Strain 2
  Effects (0 < 1 < 2 < 3): 3
[6]; S. aureus Strain 3, 0.1 mg/ml
  Δ DO: 0.299
[6]; S. aureus Strain 3, 0.5 mg/ml
  Δ DO: 0.529
[6]; S. aureus Strain 3, 1 mg/ml
  Δ DO: 0.525
[6]; S. aureus Strain 3
  Effects (0 < 1 < 2 < 3): 3
[6]; S. aureus Strain 4, 0.1 mg/ml
  Δ DO: 0.291
[6]; S. aureus Strain 4, 0.5 mg/ml
  Δ DO: 0.491
[6]; S. aureus Strain 4, 1 mg/ml
  Δ DO: 0.491
[6]; S. aureus Strain 4
  Effects (0 < 1 < 2 < 3): 3
[7]
  inhibition at 10 µM: 0%
  inhibition at 1 µM: 0%
